Results reported in US12209081B2 (Katholieke Universiteit Leuven, priority 2020, dated 2025).

These molecules were tested against mouse TRPM3α2 (mTRPM3) ion channel (Mus musculus (Mouse), UniProt J9SQF3) (assay: TRPM3 ion channel driven Ca2+ uptake, Fluo-4 AM assay, mTRPM3alpha2 overexpressing flip-in HEK293 cells stimulated with pregnenolone sulfate). Conditions: PS 50 μM, cpds 200-299.
Type: cell-based
Procedure: Part B Monitoring the TRPM3 Ion Channel Driven Ca^2+ Uptake.
In order to monitor the inhibition of the mouse TRPM3α2 (mTRPM3) ion channel by the compounds of the invention, a cellular system making use of an mTRPM3alpha2 or hTRPM3 overexpressing cell line (flip-in HEK293) was used. The TRPM3 channel was stimulated/opened with Pregnenolone sulfate (PS) (50 μM) which results in Ca^2+ influx.
For mTRPM3, the intracellular Ca^2+ was measured with a Calcium responsive dye. Fluor-4 AM ester (Invitrogen). Cells were cultured until a confluence of 80-90%, washed with Versene (Invitrogen) and detached from the surface by a short incubation with 0.05% Trypsin (Invitrogen). The trypsination process was stopped by the addition of complete cell culture medium (DMEM, glutamax, 10% FCS,NEAA,Pen-Strep). Cells were collected and resuspended in Krebs buffer without Calcium at RT.
Prior the cell seeding (±2000 cells/well into a black, 384 well plate (Greiner)) the diluted compound was added in the assay plate, together with the PS dissolved in Krebs buffer containing Calcium. […] Directly after cell addition the plates were read on an Envision fluorescence reader (Perkin Elmer) by an Excitation of 485 nm and emission at 535 nm.
Channel inhibition was calculated compared to a non-PS stimulated control versus a condition stimulated with PS (50 μM) with vehicle. The ability of the compounds of the invention to inhibit this activity was determined as: Percentage inhibition=[1-((RFU determined for sample with test compound present—RFU determined for sample with positive control inhibitor) divided by (RFU determined in the presence of vehicle—RFU determined for sample with positive control inhibitor))]*100.

Chain of mouse TRPM3α2 (mTRPM3) ion channel (J9SQF3 other isoform, or with tags, fused parts or gaps): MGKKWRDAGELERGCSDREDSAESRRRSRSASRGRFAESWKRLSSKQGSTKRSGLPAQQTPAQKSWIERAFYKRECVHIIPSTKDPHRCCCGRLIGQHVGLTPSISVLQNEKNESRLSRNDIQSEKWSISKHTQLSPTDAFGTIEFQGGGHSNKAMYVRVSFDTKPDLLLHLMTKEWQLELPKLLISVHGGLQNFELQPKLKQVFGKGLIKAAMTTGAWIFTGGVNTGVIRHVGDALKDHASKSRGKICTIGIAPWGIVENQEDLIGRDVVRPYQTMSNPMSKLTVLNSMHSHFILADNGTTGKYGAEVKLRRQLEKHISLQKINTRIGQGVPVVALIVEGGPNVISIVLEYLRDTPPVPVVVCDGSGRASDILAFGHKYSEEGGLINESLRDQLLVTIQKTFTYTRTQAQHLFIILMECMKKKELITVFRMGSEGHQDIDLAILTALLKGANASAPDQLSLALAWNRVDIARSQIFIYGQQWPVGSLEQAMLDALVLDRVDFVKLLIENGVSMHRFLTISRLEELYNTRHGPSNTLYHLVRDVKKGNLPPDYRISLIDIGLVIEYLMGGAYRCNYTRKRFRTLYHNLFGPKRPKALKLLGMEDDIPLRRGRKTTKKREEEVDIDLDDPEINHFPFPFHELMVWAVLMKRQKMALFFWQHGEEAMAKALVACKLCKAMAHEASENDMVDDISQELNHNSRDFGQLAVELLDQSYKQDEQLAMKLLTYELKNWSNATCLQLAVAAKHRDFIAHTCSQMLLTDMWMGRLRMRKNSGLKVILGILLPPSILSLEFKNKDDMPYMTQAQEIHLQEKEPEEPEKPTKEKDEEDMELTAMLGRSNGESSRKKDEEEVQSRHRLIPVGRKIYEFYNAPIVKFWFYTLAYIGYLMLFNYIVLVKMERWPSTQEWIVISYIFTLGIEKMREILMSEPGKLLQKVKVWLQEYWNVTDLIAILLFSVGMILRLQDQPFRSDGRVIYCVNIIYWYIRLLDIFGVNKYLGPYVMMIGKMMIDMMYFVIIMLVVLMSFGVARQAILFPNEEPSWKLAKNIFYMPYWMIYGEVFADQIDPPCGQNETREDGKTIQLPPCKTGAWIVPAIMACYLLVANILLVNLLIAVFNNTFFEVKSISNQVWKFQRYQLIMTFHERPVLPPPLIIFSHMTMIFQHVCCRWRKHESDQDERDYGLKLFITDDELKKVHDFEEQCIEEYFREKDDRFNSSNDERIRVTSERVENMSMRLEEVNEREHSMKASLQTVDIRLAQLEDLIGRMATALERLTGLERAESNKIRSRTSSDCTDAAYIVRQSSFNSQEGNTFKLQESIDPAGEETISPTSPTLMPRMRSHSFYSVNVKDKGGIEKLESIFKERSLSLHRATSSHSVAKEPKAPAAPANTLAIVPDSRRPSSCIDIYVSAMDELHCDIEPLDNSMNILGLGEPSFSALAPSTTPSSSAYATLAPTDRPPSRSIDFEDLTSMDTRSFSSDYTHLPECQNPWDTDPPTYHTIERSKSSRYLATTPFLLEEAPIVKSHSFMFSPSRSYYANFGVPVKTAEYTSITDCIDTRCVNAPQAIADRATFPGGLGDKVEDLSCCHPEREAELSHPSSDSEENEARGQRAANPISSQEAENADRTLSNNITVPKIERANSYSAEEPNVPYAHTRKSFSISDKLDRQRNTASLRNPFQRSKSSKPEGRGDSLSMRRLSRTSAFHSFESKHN

Cc1oc2ccc(OCc3nccn3C)cc2c1C(=O)NC1CCNCC1(F)F (single isomer, unassigned) [cpd 205-En 2] was tested. Which IC50 did it give?
The IC50 was under 1 µM.

Cc1oc2ccc(OCc3nccn3C)cc2c1C(=O)NC1(CO)CCOCC1 [compound 204, N-(4-(hydroxymethyl)tetrahydro-2H-pyran-4-yl)-2-methyl-5-((1-methyl-1H-imidazol-2-yl) -methoxy)benzofuran-3-carboxamide] was tested. Which IC50 did it give?
The IC50 was under 1 µM.

With Cc1oc2ccc(OCc3cccnn3)cc2c1C(=O)N[C@@H](CO)C(N)=O [compound 293, (S)-N-(1-amino-3-hydroxy-1-oxopropan-2-yl)-2-methyl-5-(pyridazin-3-ylmethoxy)benzofuran-3-carboxamide] as the molecule, how does the IC50 read?
The IC50 was under 1 µM.

Same assay, conditions: PS 50 μM, cpds 300-399

With Cc1ncsc1COc1ccc2oc(C)c(C(=O)N[C@H](C(N)=O)C(C)C)c2c1 [compound 304, (S)-N-(1-amino-3-methyl-1-oxobutan-2-yl)-2-methyl-5-((4-methylthiazol-5-yl)methoxy)benzofuran-3-carboxamide] as the molecule, how does the IC50 read?
Its IC50 is under 1 µM.

Which IC50 does the source give for Cc1oc2ccc(OCc3cccnc3OC(F)F)cc2c1C(=O)NC1CCNCC1(F)F (single isomer, unassigned) [cpd 338-En 2] here?
Its IC50 is under 1 µM.

How did the IC50 turn out when Cc1oc2ccc(OCc3ncccc3C(F)F)cc2c1C(=O)N[C@@H](CO)C(N)=O [compound 301, (S)-N-(1-amino-3-hydroxy-1-oxopropan-2-yl)-5-((3-(difluoromethyl)pyridin-2-yl)methoxy)-2-methylbenzofuran-3-carboxamide] was run?
The IC50 was under 1 µM.

How did the IC50 turn out when Cc1ncsc1COc1ccc2oc(C)c(C(=O)NC3COCCNC3=O)c2c1 (single isomer, unassigned) [cpd 317-En 1] was run?
Its IC50 is under 1 µM.

Cc1oc2ccc(OCc3cccnc3N)cc2c1C(=O)N[C@@H](CO)C(N)=O [compound 300, (S)-N-(1-amino-3-hydroxy-1-oxopropan-2-yl)-5-((2-aminopyridin-3-yl)methoxy)-2-methylbenzofuran-3-carboxamide] was tested. Which IC50 did it give?
Its IC50 is under 1 µM.

Same assay, conditions: PS (50 μM) stimulated, cpd 001-199

For Cc1oc2ccc(OCc3cccnc3C(F)(F)F)cc2c1C(=O)Nc1cnn(C)c1 [compound 143, 2-methyl-N-(1-methyl-1H-pyrazol-4-yl)-5-((2-(trifluoromethyl)pyridin-3-yl)methoxy)benzofuran-3-carboxamide], which IC50 is on record?
The IC50 was under 1 µM.

Cc1oc2ccc(OCc3cccnc3C(F)(F)F)cc2c1C(=O)NC1CCOC1 (single isomer, unassigned) [cpd 148-En 1] was tested. Which IC50 did it give?
The IC50 was under 1 µM.

How did the IC50 turn out when Cc1oc2ccc(OCc3cccnc3C(F)(F)F)cc2c1C(=O)NC1(CO)CCOC1 (single isomer, unassigned) [cpd 135-En 1] was run?
Its IC50 is under 1 µM.

Cc1oc2ccc(OCc3cccnc3C(F)(F)F)cc2c1C(=O)Nc1ccnn1C [compound 154, 2-methyl-N-(1-methyl-1H-pyrazol-5-yl)-5-((2-(trifluoromethyl)pyridin-3-yl)methoxy)benzofuran-3-carboxamide] was tested. Which IC50 did it give?
Its IC50 is under 1 µM.

Which IC50 does the source give for Cc1oc2ccc(OCc3cncc(C(F)(F)F)c3)cc2c1C(=O)NC1CCNCC1(F)F (stereo not shown) [compound 075, N-(3,3-difluoropiperidin-4-yl)-2-methyl-5-((5-(trifluoromethyl)pyridin-3-yl)methoxy)benzofuran-3-carboxamide] here?
Its IC50 is over 20 µM.

Cc1oc2ccc(OCc3cccnc3C(F)(F)F)c(C#N)c2c1C(=O)NC1CCNCC1(F)F (single isomer, unassigned) [191-En 1, 4-cyano-N-(3,3-difluoropiperidin-4-yl)-2-methyl-5-((2-(trifluoromethyl)pyridin-3-yl)methoxy) -benzofuran-3-carboxamide] was tested. Which IC50 did it give?
The IC50 was over 20 µM.

How did the IC50 turn out when Cc1oc2ccc(OCc3cccnc3)cc2c1C(=O)N[C@H]1CCNC1 [compound 022, (S)-2-methyl-5-(pyridin-3-ylmethoxy)-N-(pyrrolidin-3-yl)benzofuran-3-carboxamide] was run?
The IC50 was under 1 µM.

COc1ncccc1COc1ccc2oc(C)c(C(=O)NC3CCN(C)CC3)c2c1 [compound 051, 5-((2-methoxypyridin-3-yl)methoxy)-2-methyl-N-(1-methylpiperidin-4-yl)benzofuran-3-carboxamide] was tested. Which IC50 did it give?
The IC50 was under 1 µM.

For Cc1oc2cc(C#N)c(OCc3cccnc3C(F)(F)F)cc2c1C(=O)NC1CCNCC1(F)F (single isomer, unassigned) [195-En 1, 6-cyano-N-(3,3-difluoropiperidin-4-yl)-2-methyl-5-((2-(trifluoromethyl)pyridin-3-yl)methoxy) -benzofuran-3-carboxamide], which IC50 is on record?
The IC50 was over 20 µM.

For Cc1ncsc1COc1ccc2oc(C)c(C(=O)NC(C)(C)CO)c2c1 [compound 104, N-(1-hydroxy-2-methylpropan-2-yl)-2-methyl-5-((4-methylthiazol-5-yl)methoxy)benzofuran-3-carboxamide], which IC50 is on record?
The IC50 was under 1 µM.

How did the IC50 turn out when Cc1oc2ccc(OCc3ccncc3)cc2c1C(=O)O [compound 004, 2-methyl-5-(pyridin-4-ylmethoxy)benzofuran-3-carboxylic acid] was run?
The IC50 was over 20 µM.

With Cc1oc2ccc(OCc3nc4ccccc4s3)cc2c1C(=O)O [compound 017, 5-(benzo[d]thiazol-2-ylmethoxy)-2-methylbenzofuran-3-carboxylic acid] as the molecule, how does the IC50 read?
Its IC50 is over 20 µM.

Cc1oc2ccc(OCc3cccnc3C(F)(F)F)cc2c1C(=O)NC1CN(C)CC1(F)F (single isomer, unassigned) [124-En 1, N-(4,4-difluoro-1-methylpyrrolidin-3-yl)-2-methyl-5-((2-(trifluoromethyl)pyridin-3-yl)methoxy) -benzofuran-3-carboxamide] was tested. Which IC50 did it give?
The IC50 was under 1 µM.

For Cc1oc2ccc(OCc3cccnc3C(F)(F)F)cc2c1C(=O)NC1CNCC(F)(F)C1 (single isomer, unassigned) [cpd 125-En 1], which IC50 is on record?
The IC50 was under 1 µM.

Same assay, conditions: PS (50 μM) stimulated, cpds. 400-499

How did the IC50 turn out when Cc1oc2ccc(OCc3ccncn3)cc2c1C(=O)NC(C)(CO)CO [compound 429, N-(1,3-dihydroxy-2-methylpropan-2-yl)-2-methyl-5-(pyrimidin-4-ylmethoxy)benzofuran-3-carboxamide] was run?
Its IC50 is under 1 µM.

For Cc1oc2ccc(OCc3ccccn3)cc2c1C(=O)NC(C)(C)CO [compound 484, N-(1-hydroxy-2-methylpropan-2-yl)-2-methyl-5-(pyridin-2-ylmethoxy)benzofuran-3-carboxamide], which IC50 is on record?
Its IC50 is under 1 µM.

For Cc1ncc(COc2ccc3oc(C)c(C(=O)NC(C)(C)CO)c3c2)s1 [compound 483, N-(1-hydroxy-2-methylpropan-2-yl)-2-methyl-5-((2-methylthiazol-5-yl)methoxy)benzofuran-3-carboxamide], which IC50 is on record?
The IC50 was under 1 µM.

For COc1ncccc1COc1ccc2oc(C)c(C(=O)N[C@H](C)CO)c2c1 [compound 497, (R)-N-(1-hydroxypropan-2-yl)-5-((2-methoxypyridin-3-yl)methoxy)-2-methylbenzofuran-3-carboxamide], which IC50 is on record?
The IC50 was under 1 µM.

With Cc1oc2ccc(OCc3ccccn3)cc2c1C(=O)NC(C)(C)C(N)=O [compound 442, N-(1-amino-2-methyl-1-oxopropan-2-yl)-2-methyl-5-(pyridin-2-ylmethoxy)benzofuran-3-carboxamide] as the molecule, how does the IC50 read?
Its IC50 is under 1 µM.

How did the IC50 turn out when Cc1oc2ccc(OCc3ccccn3)cc2c1C(=O)N[C@H](C)CO [compound 493, (R)-N-(1-hydroxypropan-2-yl)-2-methyl-5-(pyridin-2-ylmethoxy)benzofuran-3-carboxamide] was run?
The IC50 was under 1 µM.

Which IC50 does the source give for Cc1ncsc1COc1ccc2oc(C)c(C(=O)NC(C)(C)C(N)=O)c2c1 [compound 440, N-(1-amino-2-methyl-1-oxopropan-2-yl)-2-methyl-5-((4-methylthiazol-5-yl)methoxy)benzofuran-3-carboxamide] here?
Its IC50 is under 1 µM.

Same assay, conditions: PS (50 μM) stimulated, cpds. 500-599

Which IC50 does the source give for Cc1oc2ccc(OCc3ccccn3)cc2c1C(=O)NC1(CO)COC1 [compound 526, N-(3-(hydroxymethyl)oxetan-3-yl)-2-methyl-5-(pyridin-2-ylmethoxy)benzofuran-3-carboxamide] here?
The IC50 was under 1 µM.

How did the IC50 turn out when Cc1oc2ccc(OCc3cccnc3C(F)(F)F)cc2c1C(=O)NC1CCNCC1(F)F (single isomer, unassigned) [cpd 546-En 1] was run?
The IC50 was under 1 µM.

With CC(=O)NCCNC(=O)c1c(C)oc2ccc(OCc3scnc3C)cc12 [compound 501, N-(2-acetamidoethyl)-2-methyl-5-((4-methylthiazol-5-yl)methoxy)benzofuran-3-carboxamide] as the molecule, how does the IC50 read?
Its IC50 is under 1 µM.

How did the IC50 turn out when Cc1oc2ccc(OCc3cccc(=O)n3C)cc2c1C(=O)NC1CCNCC1(F)F (single isomer, unassigned) [cpd 545-En 1] was run?
Its IC50 is 1 to 20 µM.

Same assay, conditions: PS (50 μM) stimulated, cpds. 608-666

Which IC50 does the source give for Cc1ncsc1COc1ccc2oc(C)c(C(=O)NC3COCC3(F)F)c2c1 (single isomer, unassigned) [cpd 646-En 1] here?
Its IC50 is under 1 µM.

Same assay, conditions: PS (50 μM) stimulated, cpds. 667-751

For Cc1cnc(COc2ccc3oc(C)c(C(=O)N[C@@H](CO)C(N)=O)c3c2)s1 [compound 684, (S)-N-(1-Amino-3-hydroxy-1-oxopropan-2-yl)-2-methyl-5-((5-methylthiazol-2-yl)methoxy)benzofuran-3-carboxamide], which IC50 is on record?
Its IC50 is under 1 µM.

Which IC50 does the source give for Cc1ncc(COc2ccc3oc(C)c(C(=O)NC4CCS(=N)(=O)C4)c3c2)s1 (single isomer, unassigned) [cpd 727-En 1] here?
The IC50 was 1 to 20 µM.

How did the IC50 turn out when Cc1ncc(COc2ccc3oc(C)c(C(=O)NC(C)(CO)C(N)=O)c3c2)o1 (single isomer, unassigned) [cpd 722-En 1] was run?
The IC50 was under 1 µM.
